Assay: Radiochemical stability in isotonic NaCl solution (rad-TLC)
Assay type: physicochemical
Settings: 37 °C
Protocol: The stability of PET probes [^18F]2 and [^18F]6 was measured in isotonic NaCl solution (0.9% NaCl) and mouse and human serums at 37 °C for up to 120 min by rad-TLC at 0 min, 30 min, 60 min and 120 min post incubation. The results obtained are presented in Fig. 5 and SI-Figs. S10–S15, SI-Table S1. […] The plausible explanation of the instability of [^18F]6 could be attributed to the covalent interaction of [^18F]6’s SO2F group with primary amines of amino acid residues present in the protein rich mouse and human serums. In fact, in an unrelated study, Zhao et al. reported formation of sulfonamide bond between sulfuryl fluoride and primary amine of conserved lysine residues of different kinases. […] Based on 2’s favorable blood–brain barrier permeability, nanomolar binding affinity and PET probe [^18F]2’s excellent stability in both mouse and human serums, further in vivo evaluations were performed only with PET probe [^18F]2.
Stability of [^18F]2 and [^18F]6 was assessed in isotonic NaCl solution and human and mouse serums. To perform this stability assay, 100 µL of [^18F]2 (~ 37.0 MBq) or 100 µL of [^18F]6 (~ 37.0 MBq) as in final formulation was added to 100 µL of human serum or mouse serum in a microcentrifuge tube. The resultant mixture was incubated at 37 °C for 120 min. To assess the radiochemical stability of the probes, a small aliquot (~ 0.5 µL) was taken out from the mixture in triplicate at 0 min, 30 min, 60 min and 120 min during incubation, and analyzed on a rad-TLC using 0.5:9.5 methanol: chloroform as a mobile phase using i-TLC to estimate the stability of [^18F]2 or [^18F]6 at different time points post-incubation. After Stability preparative processes initial i-TLC development was considered as 0 min.

Measured: Percentage of intact probe

O=C(Nc1cnccc1-c1ccc([18F])cc1)c1ccnc(NC(=O)C2CC2)c1 [[^18F]2]
100 ± 0.0%: 0 min | 30 min | 60 min

Reference: publication PMC11237012, “Synthesis and preliminary evaluation of novel PET probes for GSK-3 imaging” (Scientific Reports, 2024)
